Test results taken from patent US20260200903A1, “PHARMACEUTICAL COMPOSITION FOR AMELIORATING MALIGNANT DISEASES” (KINKI UNIVERSITY, priority 2020, published 2026).

Legend:
L363 cells = experiment: Tumor growth inhibition in mice transplanted with L363 cells; format: in vivo, NOD/ShiJic-scidJcl mice; conditions: oral 100 mg/kg daily, day 24, vs control group (P<0.01)
Description: L363 cells were transplanted into NOD/ShiJic-scidJcl mice, and the tumor growth inhibitory effect of oral administration of M9 was examined. As a result, a remarkable tumor growth inhibitory effect was observed.
L363 cells were transplanted into NOD/ShiJic-scidJcl mice, and M9 was orally administered to the mice at 100 mg/kg daily on day 0 when the average tumor volume exceeded 100 mm^3, and tumor volume was measured on day 24.
The group that was only implanted with L363 cells is called the target group and the group that was treated with M9 is called the M9-treated group. Each group consisted of 5 animals.
(§1) Referring to the figure, the horizontal axis indicates drug treatment, and the vertical axis indicates tumor volume (percent of the control group).
White bars indicate the control group (labeled “Control”). Black bars indicate the M9 treatment group (labeled “100 mg/kg M9”). Those with significant differences (P<0.01) from the control group are marked with an asterisk (*).

Raji cells = experiment: Tumor growth inhibition in mice transplanted with Raji cells; format: in vivo, NOD/ShiJic-scidJcl mice; conditions: oral 50 mg/kg daily, day 21, vs control group (P<0.01)
Description: Raji cells were transplanted into NOD/ShiJic-scidJcl mice, and the tumor growth inhibitory effect of oral administration of M9 and M14 was examined. As a result, a remarkable tumor growth inhibitory effect was observed.
Raji cells were transplanted into NOD/ShiJic-scidJcl mice, and the mice were orally administered M9 at 50 mg/kg and M14 at 50 mg/kg daily on day 0 when the average tumor volume exceeded 100 mm^3, and the tumor volume was measured on day 21.
The group that was only transplanted with Raji cells is called the control group, the group that was treated with M9 is called the M9-treated group, and the group that was treated with M14 is called the M14-treated group. Each group consisted of 5 animals.
as §1
White bars indicate the control group (labeled “Control”). Black bars indicate the M9 treatment group (labeled “50 mg/kg M9”) and vertical bars indicate the M14 treatment group (labeled “50 mg/kg M14”).

IgG [1] = experiment: IgG secretion in KMS-28BM cells, ELISA; format: cell-based, human; conditions: KMS-28BM culture supernatant after 10 days; compounds at 0.005-50 μM; control 1326 ng/mL
Description: The inhibitory effect of each compound on IgG secretion was examined by enzyme-linked immunosorbent assay (ELISA) using KMS-28BM cells.
(§2) As a control, compounds untreated KMS-28BM cells were seeded in 75 cm^2 flasks and incubated for 10 days at 37° C. and 5% CO2. KMS-28BM cells were seeded into 75 cm^2 flasks and pre-cultured for 4 h. After incubation, KMS-28BM cells were treated with […], 0.05 μM M9, 0.1 μM yk-7, 0.1 μM yk-8-3, 50 μM yk-8-1, 0.5 μM M11, […], 0.005 μM M14, 0.005 μM M15, 0.005 μM M16, 0.5 μM M18, and 0.5 μM M19 at final concentrations, and incubated for 10 days at 37° C. and 5% CO2. After 10 days of incubation, the culture supernatant was collected and IgG secretion was measured by ELISA. This measurement was performed using a human anti-IgG antibody ELISA kit (Funakoshi).

IL-6 = IL-6 secretion in KMS-28BM cells, Luminex; format: cell-based, human; conditions: KMS-28BM culture supernatant after 10 days; compounds at 0.005-50 μM; control 143 μg/mL
Description: The inhibitory effect of each compound on IL-6 secretion was examined using Luminex in KMS-28BM cells.
as §2, with “the” for “IgG”, “secretion of IL-6, a bone destruction-related factor and a growth-promoting factor,” for “secretion”, “Luminex. The human Magnetic Luminex Assay (R&D)” for “ELISA. This measurement”, “used for this measurement.” for “performed using a human anti-IgG antibody ELISA kit (Funakoshi).”

IgG [2] = experiment: IgG secretion in L363 cells, ELISA; format: cell-based, human; conditions: L363 culture supernatant after 10 days; compounds at 0.005-50 μM; control 2098 ng/mL
Description: The inhibitory effect of each compound on IgG secretion was examined by enzyme-linked immunosorbent assay (ELISA) using L363 cells.
(§3) As a control, compounds untreated L363 cells were seeded in 75 cm^2 flasks and incubated for 10 days at 37° C. and 5% CO2. L363 cells were seeded into 75 cm^2 flasks and pre-cultured for 4 h. After incubation, L363 cells were treated with 0.1 μM M7, 0.05 μM M9, 0.1 μM yk-7, 0.1 μM yk-8-3, 50 μM yk-8-1, 0.1 μM M11, 0.01 μM M12, 0.005 μM M14, 0.005 μM M15, 0.005 μM M16, 1 μM M18, and 1 μM M19 at final concentrations, and incubated for 10 days at 37° C. and 5% CO2. After 10 days of incubation, the culture supernatant was collected and IgG secretion was measured by ELISA. This measurement was performed using a human anti-IgG antibody ELISA kit (Funakoshi).

MIP-1α = MIP-1α secretion in L363 cells, Luminex; format: cell-based, human; conditions: L363 culture supernatant after 10 days; compounds at 0.005-50 μM; control 266 μg/mL
Description: The inhibitory effect of each compound on MIP-1α secretion was examined using Luminex in L363 cells.
as §3, with “the” for “IgG”, “secretion of MIP-la, a bone destruction-related factor and a growth-promoting factor,” for “secretion”, “Luminex. The human Magnetic Luminex Assay (R&D)” for “ELISA. This measurement”, “used for this measurement.” for “performed using a human anti-IgG antibody ELISA kit (Funakoshi).”

Compound	tumor growth (tumor volume, percent of the control group) (L363 cells)	tumor growth (tumor volume, percent of the control group) (Raji cells)	IgG secretion (IgG [1]) [ng/mL]	IL-6 secretion (IL-6) [µg/mL]	IgG secretion (IgG [2]) [ng/mL]	MIP-1α secretion (MIP-1α) [µg/mL]
CCC(=O)OC[C@H]1O[C@@H](c2c(O)cc3oc4cc(O)c(O)cc4c(=O)c3c2O)[C@H](OC(=O)CC)[C@@H](OC(=O)CC)[C@@H]1OC(=O)CC [Compound M9, 2′,3′,4′,6′-tetra-O-propionylmangiferin]	significant inhibition of tumor growth	significant inhibition of tumor growth	–	–	–	–
CCCC(=O)OC[C@H]1O[C@@H](c2c(OC(=O)CCC)cc3oc4cc(OC(=O)CCC)c(OC(=O)CCC)cc4c(=O)c3c2OC(=O)CCC)[C@H](OC(=O)CCC)[C@@H](OC(=O)CCC)[C@@H]1OC(=O)CCC [Compound M11, 1,3,2′,3′,4′,6,6′,7-octa-O-butyrylmangiferin]	–	–	61	12	44	6
CCCC(=O)OC[C@H]1O[C@@H](c2c(O)cc3oc4cc(O)c(O)cc4c(=O)c3c2O)[C@H](OC(=O)CCC)[C@@H](OC(=O)CCC)[C@@H]1OC(=O)CCC [Compound M14, 2′,3′,4′,6′-tetra-O-butyrylmangiferin]	–	significant inhibition of tumor growth	–	–	–	–
CCCCC(=O)OC[C@H]1O[C@@H](c2c(OC(=O)CCCC)cc3oc4cc(OC(=O)CCCC)c(OC(=O)CCCC)cc4c(=O)c3c2OC(=O)CCCC)[C@H](OC(=O)CCCC)[C@@H](OC(=O)CCCC)[C@@H]1OC(=O)CCCC [yk-8-1, 1,3,2′,3′,4′,6,6′,7-octa-O-valerylmangiferin]	–	–	1117	84	1474	179
